Tested on: Spermatozoa
Experiment: Post-thaw sperm motility under phase contrast microscope (Cryopreservation Example I)
Assay type: cell-based, Bovine
Settings: Hoechst 33342 added to aliquots in TCA buffer, 20 min at 35° C. or 41° C., cryopreserved, thawed 37° C. 50 seconds; analysis of variance
Description: Bovine semen was collected, transported, and evaluated as described above. Two test tubes containing 5 ml each of TCA buffer (pH 7.3) were placed in one of two water baths for at least five minutes. One water bath was at a temperature of 35° C. and the other water bath was at 41° C. Spermatozoa at 24° C. were added to each tube so that the final concentration in each tube was 150×10^6 sperm/ml. The two tubes were each divided into two aliquots which were kept in respective water baths. After the sperm had equilibrated with the TCA buffer for five minutes, […] was added to one of 35° C. aliquots and one of the 41° C. aliquots. After addition of the Hoechst 33342, all four aliquots were incubated for 20 minutes in their respective water bath. After incubation, the test tubes were removed from the water baths and left at room temperature (about 25° C.) for five minutes. Then the contents of each test tube were diluted with a TCA extender containing 20% egg yolk and 6% glycerol (v/v) (pH 7.0) to a final concentration of 20×10^6 sperm/ml. The contents of each test tube were then used to fill a 0.5 ml artificial insemination straw. Each of the four straws was placed in a programmable freezer (an IceCube 1810CD freezer from Minitube of America, Wis.). […]

CCOc1ccc(-c2nc3ccc(-c4nc5ccc(N6CCN(C)CC6)cc5[nH]4)cc3[nH]2)cc1 [Hoechst 33342]
effect on post-thaw sperm motility: no significant effect

— patent US8691584B2, “Sperm processing methods” (priority 2003, dated 2014)
